Measured values taken from ChEMBL document CHEMBL2380247, “Synthesis and biological evaluation of novel aliphatic amido-quaternary ammonium salts for anticancer chemotherapy: part II” (2013).

Legend:
Assay type in all cases: functional
[1] = system: HCT-15; assay: Antiproliferative activity against human HCT15 cells at 10 uM by SRB assay
[2] = system: NCI-H23; assay: Antiproliferative activity against human NCI-H23 cells at 1 uM by SRB assay
[3] = system: NUGC-3; assay: Antiproliferative activity against human NUGC3 cells at 10 uM by SRB assay
[4] = system: PC-3; assay: Antiproliferative activity against human PC3 cells at 0.3 uM by SRB assay
[5] = system: PC-3; assay: Antiproliferative activity against human PC3 cells at 0.1 uM by SRB assay
[6] = system: NUGC-3; assay: Antiproliferative activity against human NUGC3 cells at 3 uM by SRB assay
[7] = system: HCT-15; assay: Antiproliferative activity against human HCT15 cells by SRB assay
[8] = system: MDA-MB-231; assay: Antiproliferative activity against human MDA-MB-231 cells at 0.1 uM by SRB assay
[9] = system: MDA-MB-231; assay: Antiproliferative activity against human MDA-MB-231 cells at 1 uM by SRB assay
[10] = system: NUGC-3; assay: Antiproliferative activity against human NUGC3 cells by SRB assay
[11] = system: MDA-MB-231; assay: Antiproliferative activity against human MDA-MB-231 cells by SRB assay
[12] = system: ACHN; assay: Antiproliferative activity against human ACHN cells at 0.1 uM by SRB assay
[13] = system: HCT-15; assay: Antiproliferative activity against human HCT15 cells at 1 uM by SRB assay
[14] = system: NUGC-3; assay: Antiproliferative activity against human NUGC3 cells at 0.1 uM by SRB assay
[15] = system: HCT-15; assay: Antiproliferative activity against human HCT15 cells at 0.1 uM by SRB assay
[16] = system: HCT-15; assay: Antiproliferative activity against human HCT15 cells at 0.3 uM by SRB assay
[17] = system: ACHN; assay: Antiproliferative activity against human ACHN cells at 0.3 uM by SRB assay
[18] = system: ACHN; assay: Antiproliferative activity against human ACHN cells at 1 uM by SRB assay
[19] = system: PC-3; assay: Antiproliferative activity against human PC3 cells at 1 uM by SRB assay
[20] = system: PC-3; assay: Antiproliferative activity against human PC3 cells by SRB assay
[21] = system: ACHN; assay: Antiproliferative activity against human ACHN cells at 3 uM by SRB assay
[22] = system: NUGC-3; assay: Antiproliferative activity against human NUGC3 cells at 0.3 uM by SRB assay
[23] = system: PC-3; assay: Antiproliferative activity against human PC3 cells at 10 uM by SRB assay
[24] = system: ACHN; assay: Antiproliferative activity against human ACHN cells at 10 uM by SRB assay
[25] = system: NCI-H23; assay: Antiproliferative activity against human NCI-H23 cells at 10 uM by SRB assay
[26] = system: HCT-15; assay: Antiproliferative activity against human HCT15 cells at 3 uM by SRB assay
[27] = system: MDA-MB-231; assay: Antiproliferative activity against human MDA-MB-231 cells at 3 uM by SRB assay
[28] = system: NCI-H23; assay: Antiproliferative activity against human NCI-H23 cells by SRB assay
[29] = system: NUGC-3; assay: Antiproliferative activity against human NUGC3 cells at 1 uM by SRB assay
[30] = system: MDA-MB-231; assay: Antiproliferative activity against human MDA-MB-231 cells at 10 uM by SRB assay
[31] = system: MDA-MB-231; assay: Antiproliferative activity against human MDA-MB-231 cells at 0.3 uM by SRB assay
[32] = system: NCI-H23; assay: Antiproliferative activity against human NCI-H23 cells at 0.3 uM by SRB assay
[33] = system: NCI-H23; assay: Antiproliferative activity against human NCI-H23 cells at 3 uM by SRB assay
[34] = system: PC-3; assay: Antiproliferative activity against human PC3 cells at 3 uM by SRB assay
[35] = system: NCI-H23; assay: Antiproliferative activity against human NCI-H23 cells at 0.1 uM by SRB assay
[36] = system: ACHN; assay: Antiproliferative activity against human ACHN cells by SRB assay

| SMILES | growth, % of control at 10 µM [1] [%] | growth, % of control at 1 µM [2] [%] | growth, % of control at 10 µM [3] [%] | growth, % of control at 0.3 µM [4] [%] | growth, % of control at 0.1 µM [5] [%] | growth, % of control at 3 µM [6] [%] | GI50 [7] [nM] | growth, % of control at 0.1 µM [8] [%] | growth, % of control at 1 µM [9] [%] | GI50 [10] [nM] | GI50 [11] [nM] | growth, % of control at 0.1 µM [12] [%] | growth, % of control at 1 µM [13] [%] | growth, % of control at 0.1 µM [14] [%] | growth, % of control at 0.1 µM [15] [%] | growth, % of control at 0.3 µM [17] [%] | growth, % of control at 1 µM [18] [%] | growth, % of control at 1 µM [19] [%] | GI50 [20] [nM] | growth, % of control at 3 µM [21] [%] | further results |
| --- | --- | --- | --- | --- | --- | --- | --- | --- | --- | --- | --- | --- | --- | --- | --- | --- | --- | --- | --- | --- | --- |
| C=CC[N+](CC)(CC)CCN(C)C(=O)CCCCCCCCCCCCCCC | 32 | 19.3 | -6.2 | 81.8 | 92.9 | 5.3 | 1980 | 96.1 | 38.7 | 270 | 440 | 115 | 78.6 | 101 | 86.1 | 87.7 | 30.2 | 0.8 | 200 | 8.1 | growth, % of control at 0.3 µM [16]: 87.9%; growth, % of control at 0.3 µM [22]: 76.9%; growth, % of control at 10 µM [23]: -19.6%; growth, % of control at 10 µM [24]: -18.9%; growth, % of control at 10 µM [25]: -15%; growth, % of control at 3 µM [26]: 55.2%; growth, % of control at 3 µM [27]: 21%; GI50 [28]: 170 nM; growth, % of control at 1 µM [29]: 22.9%; growth, % of control at 10 µM [30]: -6.4%; growth, % of control at 0.3 µM [31]: 92.5%; growth, % of control at 0.3 µM [32]: 54.8%; growth, % of control at 3 µM [33]: 10.7%; growth, % of control at 3 µM [34]: -14.3%; growth, % of control at 0.1 µM [35]: 81.2%; GI50 [36]: 350 nM |
| CCCCCCCCCCCCCC(=O)N(C)CC[N+](CC)(CC)CC | 43.1 | 29 | -7.5 | 84.7 | 95.7 | -4.9 | 4330 | 92.9 | 33.2 | 160 | 360 | 103 | 88 | 96.3 | 90.7 | 63.2 | 24.1 | 11.7 | 260 | 9.4 | growth, % of control at 0.3 µM [22]: 56.2%; growth, % of control at 10 µM [23]: -22.4%; growth, % of control at 10 µM [24]: -15.5%; growth, % of control at 10 µM [25]: -7.7%; growth, % of control at 3 µM [26]: 79.2%; growth, % of control at 3 µM [27]: 11.3%; GI50 [28]: 280 nM; growth, % of control at 1 µM [29]: 3%; growth, % of control at 10 µM [30]: -8%; growth, % of control at 0.3 µM [31]: 86.6%; growth, % of control at 0.3 µM [32]: 76.2%; growth, % of control at 3 µM [33]: 3.7%; growth, % of control at 3 µM [34]: -7.5%; growth, % of control at 0.1 µM [35]: 83.6%; GI50 [36]: 230 nM |
| CCCCCCCCCCCCCCCCCC(=O)NCC(C)(C)C[N+](C)(C)Cc1ccccc1 | 85.2 | 70.6 | -11 | 95.6 | 101 | 40.4 | > 10000 | 95.5 | 86 | 1320 | 2150 | 101 | 101 | 96.5 | 111 | 94 | 87.4 | 38.5 | 510 | 74.1 | growth, % of control at 0.3 µM [16]: 102%; growth, % of control at 0.3 µM [22]: 101%; growth, % of control at 10 µM [23]: -38.9%; growth, % of control at 10 µM [24]: 0.64%; growth, % of control at 10 µM [25]: -25.8%; growth, % of control at 3 µM [26]: 100%; growth, % of control at 3 µM [27]: 58.9%; GI50 [28]: 910 nM; growth, % of control at 1 µM [29]: 82%; growth, % of control at 10 µM [30]: 20.6%; growth, % of control at 0.3 µM [31]: 91.4%; growth, % of control at 0.3 µM [32]: 80.7%; growth, % of control at 3 µM [33]: 34.9%; growth, % of control at 3 µM [34]: -5.4%; growth, % of control at 0.1 µM [35]: 93.4%; GI50 [36]: 2230 nM |
| CCCCCCCCCCCCCCCC(=O)N1CC[N+](C)(C)CC1 | – | – | – | – | – | – | 580 | – | – | 290 | – | – | – | – | – | – | – | – | 480 | – | – |
